“And” between values parts separate entries of the source, which are not always exact repeats. Equal entries are not always repeated.

One assay concerns anti-HAV-positive sera. Put plainly: EIA for anti-HAV: synthetic peptides adsorbed to wells, reacted with anti-HAV-positive acute sera. The assay is classed as binding, human. As to conditions: for Reactivity with acute sera (reactive/tested): experiment 1: sera 1:100, anti-human IgG-HRP, cutoff P/N 3.0; for Reactivity with acute sera (percent of sera reactive): experiment 1: sera 1:100, cutoff P/N 3.0; for P/N for acute sera (mean) / P/N for acute sera (range, in parentheses) / P/N for acute sera (individual values): experiment 1; for P/N for acute sera (mean) / P/N for acute sera (range, in parentheses): OD493 positive/negative ratio of reactive sera; for P/N for acute sera (individual values): single sera listed with semicolon. From the text: (§1) All anti-HAV-positive and anti-HAV-negative sera were randomly selected from a collection reposited at the Centers for Disease Control and Prevention, Atlanta, Ga. Serum specimens were collected from anti-HAV-positive patients with acute liver disease. Anti-HAV-negative serum specimens were collected from normal blood donors. All sera were initially tested by commercially available kit for the presence of anti-HAV activity (HAVAB and HAVAB-M, Abbott Laboratories, Abbott Park, Ill.)
(§2) Synthetic peptides (110 ml) at a concentration of 10 mg/ml in 0.1 M phosphate-buffered saline (PBS), pH 7.5, were adsorbed to microtiter wells (Immulon II, Dynatech Laboratories, Inc.) at room temperature for 12 h. Sera were diluted in PBS containing 0.1% Tween 20 and 10% normal goat serum (PBS-T) and 100 ml were added to each well, incubated for 60 min at 37E C, and washed with PBS containing Tween-20. […] Two different cutoffs were established for experiments 1 and 2. In experiment 1, the cutoff, expressed as a P/N ratio and equal to 3.0, was statistically established as the mean of negative controls plus at least 3.5 standard deviations (SD) above the mean, where P represents the optical density value at 493 nm (OD493) of anti-HAV-positive specimens and N represents the optical density value of negative controls. In experiment 2, a different cutoff was used to ensure statistical reliability and accurate interpretation of positive results. In this case, in addition to anti-HAV-negative sera, two irrelevant synthetic peptides were used as supplemental negative controls to determine the degree of nonspecific binding of anti-HAV sera to synthetic peptides. One cutoff, expressed as a P/N ratio and equal to 3.0, corresponded to the mean of negative serum controls plus at least 3.5 SD above the mean. A second cutoff was also expressed as a P/N ratio, where P represents the optical density value at 493 nm (OD493) for HAV peptides immunoreacting with anti-HAV-positive specimens and N represents the optical density value obtained with the irrelevant peptides. The second cutoff was equal 2.0 and corresponded to the mean of OD values obtained with the irrelevant peptides plus at least 3.5 SD above the mean. Synthetic peptides were considered immunoreactive with anti-HAV serum specimens only when both cutoffs were satisfied.

The next assay relates to anti-HAV-negative sera. The assay can be described thus: EIA for anti-HAV: synthetic peptides reacted with anti-HAV-negative sera. The assay is classed as binding, human. As to conditions: experiment 1: sera 1:100, cutoff P/N 3.0.
Text: as §1, §2

For the sequence TTVSTEQNVPDPQVGITTMK [YK-1265], in the assay with anti-HAV-positive sera, the “Reactivity with acute sera (reactive/tested)” value is listed as 9/41; the “Reactivity with acute sera (percent of sera reactive)” value is on record as 22.0%; the “P/N for acute sera (mean)” value is reported as 6.7; the “P/N for acute sera (range, in parentheses)” value is recorded as “(3.23-9.57)”. Besides, in the assay on anti-HAV-negative sera, the “Reactivity with negative sera (reactive/tested)” value was 0/46.
With DSAVAEFFQSFPSGEPSNSK [YK-1369], in the assay on anti-HAV-positive sera, the “Reactivity with acute sera (reactive/tested)” value is 24/41; the “Reactivity with acute sera (percent of sera reactive)” value is given as 58.5%; the “P/N for acute sera (mean)” value is listed as 21.71; the “P/N for acute sera (range, in parentheses)” value is recorded as “(3.8-42.62)”. Moreover, in the assay with anti-HAV-negative sera, the “Reactivity with negative sera (reactive/tested)” value was 1/27.
The matching figures for WQRSNAEFEQNLENAQWFAF [YK-1436]: 4/41, 9.8%, 4.49, “(3.35-5.89)” and 1/27.
The matching figures for HTYARFGIEIQVQINPTPFQ [YK-1216]: 23/41, 56.1%, 5.3, “(3.42-10.79)” and 4/46.
The matching figures for LSFSCYLSVTEQSEFYFPRA [YK-1307]: 6/48, 12.5%, 5.88, “(4.17-7.64)” and 0/51.
In the case of RIMKVEFTQCSMNVVSKTLF [YK-1394], in the assay with anti-HAV-positive sera, the “Reactivity with acute sera (reactive/tested)” value is 13/41; the “Reactivity with acute sera (percent of sera reactive)” value amounted to 31.7%; the “P/N for acute sera (mean)” value was 6.98; the “P/N for acute sera (range, in parentheses)” value is on record as “(4.05-12.93)”. In addition, in the assay with anti-HAV-negative sera, the “Reactivity with negative sera (reactive/tested)” value is on record as 3/27.
RCEPVVCYLYGKRGGGKSLT [YK-1348]: in the assay on anti-HAV-positive sera, the “percent of (IgM) anti-HAV-positive sera immunoreactive with peptide” value is listed as 29.2%, the “Reactivity with acute sera (reactive/tested)” value is 14/48, the “Reactivity with acute sera (percent of sera reactive)” value is 29.2% and the “P/N for acute sera (mean)” value is given as 6.96. Moreover, in the assay on anti-HAV-positive sera, the “P/N for acute sera (range, in parentheses)” value is listed as “(3.66-15.48)”. Further, the “Reactivity with negative sera (reactive/tested)” value in the assay with anti-HAV-negative sera is 2/51.
Turning to ITTIEDPVLAKKVPETFPEL [YK-1271], in the assay with anti-HAV-positive sera, the “Reactivity with acute sera (reactive/tested)” value is reported as 4/41; the “Reactivity with acute sera (percent of sera reactive)” value is listed as 9.8%; the “P/N for acute sera (mean)” value is listed as 4.97; the “P/N for acute sera (range, in parentheses)” value was “(3.33-7.76)”. Also, the “Reactivity with negative sera (reactive/tested)” value with anti-HAV-negative sera was 1/46.
In the case of PLNSNAMLSTESMMSRIAAG [YK-1310], in the assay on anti-HAV-positive sera, the “Reactivity with acute sera (reactive/tested)” value was 3/48; the “Reactivity with acute sera (percent of sera reactive)” value was determined as 6.3%; the “P/N for acute sera (individual values)” value is 3.68 and 5.23. The “Reactivity with negative sera (reactive/tested)” value in the assay with anti-HAV-negative sera is 0/51.
On to INPTPFQQGGLICAMVPGDQ [YK-1217], for which, in the assay on anti-HAV-positive sera, the “Reactivity with acute sera (reactive/tested)” value was 4/41; the “Reactivity with acute sera (percent of sera reactive)” value amounted to 9.8%; the “P/N for acute sera (mean)” value is on record as 4.03; the “P/N for acute sera (range, in parentheses)” value is “(3.94-4.12)”. In addition, the “Reactivity with negative sera (reactive/tested)” value in the assay with anti-HAV-negative sera is on record as 0/46.
Take NPSPKTVYVKEAIDRRLHFK [YK-1360]: in the assay with anti-HAV-positive sera, the “Reactivity with acute sera (reactive/tested)” value is 4/41; the “Reactivity with acute sera (percent of sera reactive)” value is on record as 9.8%; the “P/N for acute sera (mean)” value came to 4.08; the “P/N for acute sera (range, in parentheses)” value was “(3.68-4.71)”. The “Reactivity with negative sera (reactive/tested)” value in the assay on anti-HAV-negative sera is listed as 0/46.
The matching figures for GGIKITHFTTWTSIPTLAAQ [YK-1236]: 22/46, 47.8%, 4.68, “(3.1-9.33)” and 0/48.
On to GITLKQATTAPCAVMDITGV [YK-1252], for which, in the assay on anti-HAV-positive sera, the “Reactivity with acute sera (reactive/tested)” value is 2/41; the “Reactivity with acute sera (percent of sera reactive)” value is on record as 4.9%; the “P/N for acute sera (individual values)” value was 3.67 and 17.95. Moreover, the “Reactivity with negative sera (reactive/tested)” value in the assay on anti-HAV-negative sera is 0/46.
For the sequence SDPSQGGGIKITHFTTWTSI [YK-1235], in the assay with anti-HAV-positive sera, the “Reactivity with acute sera (reactive/tested)” value is 11/46; the “Reactivity with acute sera (percent of sera reactive)” value is 23.9%; the “P/N for acute sera (mean)” value was determined as 4.2; the “P/N for acute sera (range, in parentheses)” value was “(3.0-4.95)”. In the assay on anti-HAV-negative sera, the “Reactivity with negative sera (reactive/tested)” value is given as 0/48.
The matching figures for VKPASFFKNPHNDMLNVNLA [YK-1362]: 6/41, 14.6%, 7.82, “(3.4-18.05)” and 0/41.
SDSVGQQIKVIPVDPYFFQM [YK-1243]: in the assay on anti-HAV-positive sera, the “immunoreactivity with anti-HAV-positive sera (in words)” value (shortened to “immunoreactivity”) was “Very weakly reactive”, the “Reactivity with acute sera (reactive/tested)” value was 1/41, the “Reactivity with acute sera (percent of sera reactive)” value turned out to be 2.4% and the “P/N for acute sera (mean)” value amounted to 3.47. Also, the “Reactivity with negative sera (reactive/tested)” value in the assay with anti-HAV-negative sera is 0/46.
On to TKPVASDYWDGYSGQLVCII [YK-1352], for which, in the assay on anti-HAV-positive sera, the “Reactivity with acute sera (reactive/tested)” value is recorded as 8/48; the “Reactivity with acute sera (percent of sera reactive)” value was found to be 16.7%; the “P/N for acute sera (mean)” value is given as 4.45; the “P/N for acute sera (range, in parentheses)” value was “(3.38-5.81)”. Moreover, the “Reactivity with negative sera (reactive/tested)” value in the assay on anti-HAV-negative sera was 0/51.
The matching figures for QRLKYAQEELSNEVLPPPRK [YK-1317]: 55/66, 83.3%, 19.35, “(3.47-125.8)” and 1/66.
On to LGSINQAMVTRCEPVVCYLY [YK-1347], for which, in the assay on anti-HAV-positive sera, the “percent of (IgM) anti-HAV-positive sera immunoreactive with peptide” value stood at 27.1%, the “Reactivity with acute sera (reactive/tested)” value is listed as 13/48, the “Reactivity with acute sera (percent of sera reactive)” value was 27.1% and the “P/N for acute sera (mean)” value was determined as 4.16. Further, the “P/N for acute sera (range, in parentheses)” value in the assay with anti-HAV-positive sera was “(3.18-6.2)”. Besides, in the assay with anti-HAV-negative sera, the “Reactivity with negative sera (reactive/tested)” value is 2/51.
Consider FTQCSMNVVSKTLFRKSPIY [YK-1395], for which, in the assay with anti-HAV-positive sera, the “Reactivity with acute sera (reactive/tested)” value is given as 8/41; the “Reactivity with acute sera (percent of sera reactive)” value was 19.5%; the “P/N for acute sera (mean)” value stood at 6.52; the “P/N for acute sera (range, in parentheses)” value was “(3.51-17.52)”. Moreover, the “Reactivity with negative sera (reactive/tested)” value in the assay with anti-HAV-negative sera is listed as 1/27.
The matching figures for VLPPPRKMKGLFSQAKISLF [YK-1318]: 15/48, 31.3%, 5.94, “(3.4-8.68)” and 0/51.
In the case of QFPFNASDSVGQQIKVIPVD [YK-1241], in the assay with anti-HAV-positive sera, the “immunoreactivity” value is reported as “Very weakly reactive”, the “Reactivity with acute sera (reactive/tested)” value was 1/41, the “Reactivity with acute sera (percent of sera reactive)” value came to 2.4% and the “P/N for acute sera (mean)” value amounted to 3.56. Further, the “Reactivity with negative sera (reactive/tested)” value in the assay on anti-HAV-negative sera was 0/46.
On to FQSFPSGEPSNSKLSGFFQS [YK-1370], for which, in the assay on anti-HAV-positive sera, the “Reactivity with acute sera (reactive/tested)” value is on record as 10/41; the “Reactivity with acute sera (percent of sera reactive)” value came to 24.4%; the “P/N for acute sera (mean)” value came to 8.05; the “P/N for acute sera (range, in parentheses)” value is recorded as “(3.05-18.48)”. In the assay on anti-HAV-negative sera, the “Reactivity with negative sera (reactive/tested)” value is 1/27.
The matching figures for LGMTATSADKNVPQLKPVSE [YK-1429]: 5/41, 12.2%, 10.25, “(4.92-27.38)” and 0/27.
With VASHVRVNVYLSAINLECFA [YK-1261], in the assay on anti-HAV-positive sera, the “immunoreactivity” value was “broadly and strongly immunoreactive”; the “Reactivity with acute sera (reactive/tested)” value is 16/41; the “Reactivity with acute sera (percent of sera reactive)” value is on record as 39.0%; the “P/N for acute sera (mean)” value turned out to be 5.27. In addition, the “P/N for acute sera (range, in parentheses)” value in the assay with anti-HAV-positive sera is on record as “(3.72-7.9)”. Moreover, in the assay on anti-HAV-negative sera, the “Reactivity with negative sera (reactive/tested)” value was 1/46.

The values are drawn from patent US6838237B2, “Antigenically reactive regions of the hepatitis a virus polyprotein” (The United States of America as represented by the …, priority 1996, dated 2005).
